Results from patent US20250302043A1, “BIOCIDE FORMULATIONS FOR THE PRESERVATION OF ANALYTE DETECTION SENSOR(S) AND METHOD(S) OF USE AND THEREOF” (Siemens Healthcare Diagnostics Inc., priority 2019, published 2025).

Key:
[1] = test system: bacteria (including S. aureus, E. coli, P. aeruginosa, and C. maltaromaticum) and fungi (including, C. albicans, A. niger, and Penicillium sp.); assay: Biocide efficacy: concentrations (CFU per milliliter) of contaminants over time on plates treated with biocide; assay type: cell-based; settings: for decrease or elimination of the bacteria and/or fungi contaminants: plates
Excerpt: FIG. 3 is a graphical plot showing the concentrations (measured in CFU per milliliter) of various contaminants (y-axis), such as, by way of example only, bacteria and fungi, over a period of time in weeks (x-axis) on plates treated with a concentration of about 20 ppm hexahydro 1,3,5-tris(2-hydroxy ethyl)-S-triazine (“Onyxide200”) biocide in accordance with the presently disclosed and/or claimed inventive concept(s).
FIG. 4A is a graphical plot showing the concentrations (measured in CFU per milliliter) of various contaminants (y-axis), such as, by way of example only, bacteria and fungi, over a period of time in weeks (x-axis) on plates treated with a concentration of about 5 ppm of 5-chloro-2-methylisothiazol-3(2H)-one (“Cl-MlT”) biocide in accordance with the presently disclosed and/or claimed inventive concept(s).
FIG. 5A is a graphical plot showing the concentrations (measured in CFU per milliliter) of various contaminants (y-axis), such as, by way of example only, bacteria and fungi, over a period of time in weeks (x-axis) on plates treated with a combination of concentrations of about 20 ppm of Onyxide200 biocide and about 4 ppm of Cl-MlT biocide in accordance with the presently disclosed and/or claimed inventive concept(s).
Referring now to FIG. 3, shown therein is a graphical plot showing the concentrations (measured in CFU per milliliter) of various contaminants (y-axis), such as, by way of example only, bacteria (including S. aureus, E. coli, P. aeruginosa, and C. maltaromaticum) and fungi (including, C. albicans, A. niger, and Penicillium sp.) over a period of five weeks (x-axis) on plates treated with a concentration of about 20 ppm of the individual aqueous biocide Onyxide200 in accordance with the presently disclosed and/or claimed inventive concept(s). […]
Referring now to FIG. 5A, shown therein is a graphical plot showing the concentrations (measured in CFU per milliliter) of various contaminants (y-axis), such as, by way of example only, bacteria (including S. aureus, E. coli, P. aeruginosa, and C. maltaromaticum) and fungi (including, C. albicans, A. niger, and Penicillium sp.) over a period of six weeks (x-axis) on plates treated with a combined aqueous biocide formulation comprising concentrations of about 20 ppm of Onyxide200 biocide and about 4 ppm of Cl-MlT biocide in accordance with the presently disclosed and/or claimed inventive concept(s). […] This is synergistic effect allows for a significant increase in the formulation's efficacy for contaminant removal over the individual component biocides (Onyxide200 and Cl-MlT) which comprise the formulation.

[2] = test system: creatinase enzyme of creatinine detection sensors; assay: Inactivation of the enzyme of creatinine detection sensors after exposure to biocide; assay type: biochemical; settings: individual biocide; creatinine detection sensor; 'in as little as'
Excerpt: Biocides are often used to preserve the at least one analyte detection sensor(s) of a sensor array present in a blood gas, electrolyte, and/or metabolite instrument. However, when such analyte detection sensor(s) is a creatinine detection sensor(s), these biocides inactivate some or all of the enzymes present on and/or in the creatinine sensor(s). In the context of creatinine sensors, such sensors rely on enzymes containing free sulfhydryl groups (—SH) for the proper and continuous functioning of the sensors. Such free sulfhydryl groups chemically react with certain species of biocide(s) (such as, Cl-MlT) that result in the inactivation of the creatinine sensor's(s′) enzymes, thereby resulting in decreased (or total loss) of functional utility and/or functional life of the creatinine sensor(s). Such inactivation can occur very rapidly. […]
Referring now to FIG. 4A, shown therein is a graphical plot showing the concentrations (measured in CFU per milliliter) of various contaminants (y-axis), such as, by way of example only, bacteria (including S. aureus, E. coli, P. aeruginosa, and C. maltaromaticum) and fungi (including, C. albicans, A. niger, and Penicillium sp.) over a period of six weeks (x-axis) on plates treated with a concentration of about 5 ppm of the individual aqueous biocide Cl-MlT in accordance with the presently disclosed and/or claimed inventive concept(s).

SMILES	decrease or elimination of the bacteria and/or fungi contaminants ([1]; about 20 ppm individual aqueous biocide, five weeks, FIG. 3)	week of plating at which decrease and/or elimination was obtained for some contaminants ([1]; about 1 ppm individual aqueous biocide, FIG. 4B)	decrease or elimination of the bacteria and/or fungi contaminants ([1]; about 1 ppm individual aqueous biocide, six weeks, FIG. 4B)	week after plating at which decrease and/or elimination was obtained for some contaminants ([1]; about 5 ppm individual aqueous biocide, FIG. 4A)	decrease or elimination of the bacteria and/or fungi contaminants ([1]; about 5 ppm individual aqueous biocide, six weeks, FIG. 4A)	time after exposure at which inactivation of the enzyme occurs [2]
OCCN1CN(CCO)CN(CCO)C1 [Onyxide200, hexahydro 1,3,5-tris(2-hydroxyethyl)-S-triazine]	did not result in a substantial decrease or elimination of the bacteria and/or fungi contaminants					
Cn1sc(Cl)cc1=O [Cl-MlT, 5-chloro-2-methylisothiazol-3(2H)-one]		> 6 week	eventually resulted in a decrease or elimination of only some of the bacteria and/or fungi contaminants	5 week	eventually resulted in a decrease or elimination of the bacteria and/or fungi contaminants	1 to 4 days
